{
  "source": "patent US6689588B1",
  "about": "“Garlic alliinase covalently bound to carrier for continuous production of allician” (Yeda Research and Development Co. Ltd., priority 1996, dated 2004)",
  "origin": "cited, not measured here",
  "key": {"bacteria, fungi, amebae": {"test_system": "bacteria, fungi, amebae", "details": "Cavallito et al., 1944; Barone and Tansey, 1977; Mirelman et al., 1987"}, "[1]": {"details": "Cavallito et al., 1944"}},
  "data": [
    {"smiles": "C=CCS[S+]([O-])CC=C", "note": "(centres unmarked) [allicin, thio-2-propene-1-sulfinic acid S-allyl ester]", "values": [
      {"measurement": "antimicrobial activity", "setting": "bacteria, fungi, amebae", "value": "antibacterial, antifungal and antiamebic activity"},
      {"measurement": "chemical stability", "setting": "[1]", "value": "chemically unstable"}
    ]}
  ]
}
